The structures appear in SMILES notation.

In one test the target is human sodium ion channel 1.7 (hNav1.7) (Homo sapiens, UniProt Q15858). Put plainly: Blocking effect against sodium ion channel Nav1.7, IonFlux16 auto patch clamp in hNav1.7 HEK293 cells. Format: cell-based.
Sequence of human sodium ion channel 1.7 (hNav1.7) (Q15858 whole entry): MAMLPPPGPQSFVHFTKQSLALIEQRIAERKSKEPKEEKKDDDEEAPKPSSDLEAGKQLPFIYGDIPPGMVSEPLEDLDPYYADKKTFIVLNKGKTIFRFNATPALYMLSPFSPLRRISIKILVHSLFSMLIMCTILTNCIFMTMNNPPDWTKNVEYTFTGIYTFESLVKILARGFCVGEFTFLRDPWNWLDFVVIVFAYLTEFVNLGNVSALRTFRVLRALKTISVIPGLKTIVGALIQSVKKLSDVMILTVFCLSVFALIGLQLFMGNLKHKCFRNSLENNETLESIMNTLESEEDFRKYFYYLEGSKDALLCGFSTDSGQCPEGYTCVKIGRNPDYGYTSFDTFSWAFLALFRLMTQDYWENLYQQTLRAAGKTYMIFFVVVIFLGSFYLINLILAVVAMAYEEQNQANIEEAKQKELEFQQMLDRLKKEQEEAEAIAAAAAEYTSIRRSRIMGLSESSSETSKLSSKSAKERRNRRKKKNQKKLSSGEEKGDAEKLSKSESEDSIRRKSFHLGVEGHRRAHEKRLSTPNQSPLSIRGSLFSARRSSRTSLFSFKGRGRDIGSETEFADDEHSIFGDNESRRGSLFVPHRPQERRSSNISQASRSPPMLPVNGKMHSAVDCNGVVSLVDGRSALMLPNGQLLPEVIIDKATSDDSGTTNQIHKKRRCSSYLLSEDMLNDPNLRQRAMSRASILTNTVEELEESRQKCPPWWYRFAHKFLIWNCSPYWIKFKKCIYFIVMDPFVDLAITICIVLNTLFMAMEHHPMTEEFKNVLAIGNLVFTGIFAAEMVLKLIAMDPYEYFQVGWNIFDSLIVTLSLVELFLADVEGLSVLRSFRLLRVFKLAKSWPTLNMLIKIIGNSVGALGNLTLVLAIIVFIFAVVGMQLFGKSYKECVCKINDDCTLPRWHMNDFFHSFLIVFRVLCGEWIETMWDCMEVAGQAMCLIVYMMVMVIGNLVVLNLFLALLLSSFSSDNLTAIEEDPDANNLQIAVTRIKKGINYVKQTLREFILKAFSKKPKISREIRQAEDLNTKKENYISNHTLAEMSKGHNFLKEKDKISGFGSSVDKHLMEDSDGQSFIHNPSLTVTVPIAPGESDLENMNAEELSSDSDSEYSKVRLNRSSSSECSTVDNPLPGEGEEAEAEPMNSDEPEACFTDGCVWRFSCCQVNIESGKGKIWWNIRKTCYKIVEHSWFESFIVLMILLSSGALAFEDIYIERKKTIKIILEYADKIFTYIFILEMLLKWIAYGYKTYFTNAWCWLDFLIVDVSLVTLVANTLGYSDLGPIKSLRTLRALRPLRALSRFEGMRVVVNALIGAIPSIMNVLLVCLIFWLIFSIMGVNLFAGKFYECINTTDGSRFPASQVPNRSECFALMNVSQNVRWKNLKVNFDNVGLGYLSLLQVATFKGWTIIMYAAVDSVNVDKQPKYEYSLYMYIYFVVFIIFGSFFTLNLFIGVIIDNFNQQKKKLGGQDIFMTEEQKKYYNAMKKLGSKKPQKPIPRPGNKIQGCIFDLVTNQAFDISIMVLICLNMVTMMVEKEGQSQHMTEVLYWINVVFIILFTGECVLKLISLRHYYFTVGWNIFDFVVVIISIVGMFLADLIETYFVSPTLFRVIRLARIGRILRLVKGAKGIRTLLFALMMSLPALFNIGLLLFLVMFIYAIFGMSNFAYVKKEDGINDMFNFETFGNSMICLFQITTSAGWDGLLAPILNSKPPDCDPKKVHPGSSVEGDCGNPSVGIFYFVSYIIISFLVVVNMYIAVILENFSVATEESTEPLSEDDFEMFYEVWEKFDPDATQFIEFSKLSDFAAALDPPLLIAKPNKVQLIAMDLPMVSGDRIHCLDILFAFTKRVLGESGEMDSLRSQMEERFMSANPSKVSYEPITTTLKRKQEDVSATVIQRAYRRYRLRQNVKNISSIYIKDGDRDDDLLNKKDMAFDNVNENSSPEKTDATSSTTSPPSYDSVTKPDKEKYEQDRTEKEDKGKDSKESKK
Conditions: not given
As to `CS(=O)(=O)NC(=O)c1cc(Cl)c(-n2nc(-c3cc(F)ccc3F)c3cc(Cl)ccc32)cc1F` [Example 76, 5-chloro-4-(5-chloro-3-(2,5-difluorophenyl)-1H-indazol-1-yl)-2-fluoro-N-(methylsulfonyl)benzamide], it took 90 nM to reach half-maximal inhibition (IC50).

Staying with this test, now noted: hNav1.7 HEK293 cells; inhibition of peak current after 50 seconds treatment; eight concentrations; read-out: IC50.
Turning to `CS(=O)(=O)NC(=O)c1cc(Cl)c(-n2nc(Cl)c3cc(-c4ccc(C#N)cc4)ccc32)cc1F` [Example 240, 5-chloro-4-(3-chloro-5-(4-cyanophenyl)-1H-indazol-1-yl)-2-fluoro-N-(methylsulfonyl)benzamide], the IC50 came to 752 nM.
Take `CS(=O)(=O)NC(=O)c1cc(Cl)c(-n2cc(-c3ccc(F)cc3Cl)c3cc(F)cnc32)cc1F` [Example 202, 5-chloro-4-(3-(2-chloro-4-fluorophenyl)-5-fluoro-1H-pyrrolo[2,3-b]pyridin-1-yl)-2-fluoro-N-(methylsulfonyl)benzamide]: the 50% inhibitory concentration (IC50) amounted to 50 nM.
Consider `CS(=O)(=O)NC(=O)c1cc(Cl)c(-n2nc(-c3cccc(F)c3)c3cc(F)ccc32)cc1F` [Example 148, 5-chloro-2-fluoro-4-(5-fluoro-3-(3-fluorophenyl)-1H-indazol-1-yl)-N-(methylsulfonyl)benzamide], for which the IC50 worked out at 90 nM.
With `CS(=O)(=O)NC(=O)c1cc(Cl)c(-n2nc(-c3ccc(Cl)cc3F)c3cc(F)ccc32)cc1F` [Example 142, 5-chloro-4-(3-(4-chloro-2-fluorophenyl)-5-fluoro-1H-indazol-1-yl)-2-fluoro-N-(methylsulfonyl)benzamide], the 50% inhibitory concentration (IC50) was found to be 30 nM.
`CS(=O)(=O)NC(=O)c1cc(Cl)c(-n2nc(Cl)c3c(Cl)c(OCc4ccccc4F)ccc32)cc1F` [Example 32, 5-chloro-4-(3,4-dichloro-5-((2-fluorobenzyl)oxy)-1H-indazol-1-yl)-2-fluoro-N-(methylsulfonyl)benzamide]: the half-maximal inhibitory concentration (IC50) was determined as 158 nM.
Regarding `CS(=O)(=O)NC(=O)c1cc(Cl)c(-n2nc(Cl)c3ccc(-c4ccccc4)cc32)cc1F` [Example 263, 5-chloro-4-(3-chloro-6-phenyl-1H-indazol-1-yl)-2-fluoro-N-(methylsulfonyl)benzamide], the 50% inhibitory concentration (IC50) was > 10000 nM.
As to `CS(=O)(=O)NC(=O)c1cc(Cl)c(-n2nc(Cl)c3cc(-c4cncc(Cl)c4)ccc32)cc1F` [Example 242, 5-chloro-4-(3-chloro-5-(5-chloropyridin-3-yl)-1H-indazol-1-yl)-2-fluoro-N-(methylsulfonyl)benzamide], the IC50 worked out at 809 nM.
With `CS(=O)(=O)NC(=O)c1cc(Cl)c(-n2nc(-c3ccccc3C(F)(F)F)c3cc(Cl)ccc32)cc1F` [Example 63, 5-chloro-4-(5-chloro-3-(2-(trifluoromethyl)phenyl)-1H-indazol-1-yl)-2-fluoro-N-(methylsulfonyl)benzamide], the half-inhibitory concentration (IC50) stood at 41 nM.
For `CS(=O)(=O)NC(=O)c1cc(Cl)c(-n2nc(-c3ccncc3)c3cc(Cl)ccc32)cc1F` [Example 49, 5-chloro-4-(5-chloro-3-(pyridin-4-yl)-1H-indazol-1-yl)-2-fluoro-N-(methylsulfonyl)benzamide], the 50% inhibitory concentration (IC50) amounted to 2220 nM.
The same measure, in the same setting: for `CS(=O)(=O)NC(=O)c1ccc(-n2nc(Cl)c3cc(Cl)ccc32)cc1F` [Example 4, 4-(3,5-dichloro-1H-indazol-1-yl)-2-fluoro-N-(methylsulfonyl)benzamide] the value was > 10000 nM; for `COc1ccc(-c2ccc3c(c2)c(Cl)nn3-c2cc(F)c(C(=O)NS(C)(=O)=O)cc2Cl)cc1` [Example 248, 5-chloro-4-(3-chloro-5-(4-methoxyphenyl)-1H-indazol-1-yl)-2-fluoro-N-(methylsulfonyl)benzamide], 88 nM; for `COc1ccccc1-c1nn(-c2cc(F)c(C(=O)NS(C)(=O)=O)cc2Cl)c2ccc(F)cc12` [Example 146, 5-chloro-2-fluoro-4-(5-fluoro-3-(2-methoxyphenyl)-1H-indazol-1-yl)-N-(methylsulfonyl)benzamide], 200 nM.
On to `Cc1cnc(NC(=O)c2cc(Cl)c(-n3nc(-c4ccc(Cl)cc4F)c4cc(Cl)ccc43)cc2F)s1` [Example 295, 5-chloro-4-(5-chloro-3-(4-chloro-2-fluorophenyl)-1H-indazol-1-yl)-2-fluoro-N-(5-methylthiazol-2-yl)benzamide], for which the half-maximal inhibitory concentration (IC50) was > 10000 nM.
Still for that read-out and setting: for `CS(=O)(=O)NC(=O)c1cc(Cl)c(-n2cc(Cl)c3cc(-c4ccc(C(F)(F)F)cc4)cnc32)cc1F` [Example 261, 5-chloro-4-(3-chloro-5-(4-(trifluoromethyl)phenyl)-1H-pyrrolo[2,3-b]pyridin-1-yl)-2-fluoro-N-(methylsulfonyl)benzamide] the value was 180 nM; for `Cc1nn(-c2cc(F)c(S(=O)(=O)Nc3cscn3)cc2Cl)c2ccc(Cl)cc12` [Example 277, 5-chloro-4-(5-chloro-3-methyl-1H-indazol-1-yl)-2-fluoro-N-(thiazol-4-yl)benzenesulfonamide], 330 nM; for `CS(=O)(=O)NC(=O)c1cc(Cl)c(-n2nc(-c3cccc(Cl)c3)c3ccccc32)cc1F` [Example 170, 5-chloro-4-(3-(3-chlorophenyl)-1H-indazol-1-yl)-2-fluoro-N-(methylsulfonyl)benzamide], 70 nM.
On the same count and under the same terms, for `CS(=O)(=O)NC(=O)c1cc(Cl)c(-n2nc(-c3ccc(F)cc3F)c3ccccc32)cc1F` [Example 176, 5-chloro-4-(3-(2,4-difluorophenyl)-1H-indazol-1-yl)-2-fluoro-N-(methylsulfonyl)benzamide] the value was 200 nM; for `COc1ncccc1-c1nn(-c2cc(Cl)c(C(=O)NS(C)(=O)=O)cc2F)c2ccc(Cl)cc12` [Example 116, 2-chloro-4-(5-chloro-3-(2-methoxypyridin-3-yl)-1H-indazol-1-yl)-5-fluoro-N-(methylsulfonyl)benzamide], 3000 nM; for `CS(=O)(=O)NC(=O)c1cc(Cl)c(-n2nc(Cl)c3cc(Cl)ccc32)cc1F` [Example 9, 5-chloro-4-(3,5-dichloro-1H-indazol-1-yl)-2-fluoro-N-(methylsulfonyl)benzamide], 117 nM.
On the same count and under the same terms, in the case of `CS(=O)(=O)NC(=O)c1cc(Cl)c(-n2nc(-c3ccccc3Cl)c3cc(Cl)ccc32)cc1F` [Example 71, 5-chloro-4-(5-chloro-3-(2-chlorophenyl)-1H-indazol-1-yl)-2-fluoro-N-(methylsulfonyl)benzamide] it was 48 nM.
As for `CS(=O)(=O)N(Cc1ccc(F)cc1)C(=O)c1cc(Cl)c(-n2nc(Cl)c3cc(O)ccc32)cc1F` [Example 141, 5-chloro-4-(3-chloro-5-hydroxy-1H-indazol-1-yl)-2-fluoro-N-(4-fluorobenzyl)-N-(methylsulfonyl)benzamide], the IC50 is > 10000 nM.
Same read-out and setting: for `CS(=O)(=O)NC(=O)c1ccc(-n2nc(-c3cccc(C#N)c3)c3ccccc32)c(C#N)c1` [Example 183, 3-cyano-4-(3-(3-cyanophenyl)-1H-indazol-1-yl)-N-(methylsulfonyl)benzamide] the value was > 10000 nM; for `CS(=O)(=O)NC(=O)c1cc(Cl)c(-n2nc(N3CCOCC3)c3cc(Cl)ccc32)cc1F` [Example 86, 5-chloro-4-(5-chloro-3-morpholino-1H-indazol-1-yl)-2-fluoro-N-(methylsulfonyl)benzamide], > 10000 nM.
Regarding `CS(=O)(=O)NC(=O)c1cc(F)c(-n2nc(-c3ccc(F)cc3F)c3cc(Cl)ccc32)cc1Cl` [Example 115, 2-chloro-4-(5-chloro-3-(2,4-difluorophenyl)-1H-indazol-1-yl)-5-fluoro-N-(methylsulfonyl)benzamide], the IC50 was found to be 727 nM.
Still for that read-out and setting: in the case of `CC(Oc1ccc2c(c1)c(Cl)nn2-c1cc(F)c(C(=O)NS(C)(=O)=O)cc1Cl)c1ccccc1` (stereo not shown) [Example 33, 5-chloro-4-(3-chloro-5-(1-phenylethoxy)-1H-indazol-1-yl)-2-fluoro-N-(methylsulfonyl)benzamide] it was 214 nM.
Same read-out and setting: in the case of `CS(=O)(=O)NC(=O)c1ccc(-n2nc(-c3cccc(F)c3)c3cc(Cl)ccc32)c(F)c1` [Example 125, 4-(5-chloro-3-(3-fluorophenyl)-1H-indazol-1-yl)-3-fluoro-N-(methylsulfonyl)benzamide] it was 560 nM.
On the same count and under the same terms, for `CS(=O)(=O)NC(=O)c1cc(Cl)c(-n2nc(Cl)c3cc(-c4cccnc4F)ccc32)cc1F` [Example 244, 5-chloro-4-(3-chloro-5-(2-fluoropyridin-3-yl)-1H-indazol-1-yl)-2-fluoro-N-(methylsulfonyl)benzamide] the value was 2320 nM.
Consider `CS(=O)(=O)NC(=O)c1cc(Cl)c(-n2nc(Cl)c3cc(-c4ccc(F)cc4)ccc32)cc1F` [Example 236, 5-chloro-4-(3-chloro-5-(4-fluorophenyl)-1H-indazol-1-yl)-2-fluoro-N-(methylsulfonyl)benzamide], for which the IC50 stood at 71 nM.
Consider `CS(=O)(=O)NC(=O)c1ccc(-n2nc(-c3cncc(Cl)c3)c3cc(Cl)ccc32)c(C#N)c1` [Example 104, 4-(5-chloro-3-(5-chloropyridin-3-yl)-1H-indazol-1-yl)-3-cyano-N-(methylsulfonyl)benzamide], for which the IC50 is > 10000 nM.
As to `CS(=O)(=O)NC(=O)c1cc(Cl)c(-n2nc(Cl)c3cc(Cl)ncc32)cc1F` [Example 11, 5-chloro-4-(3,5-dichloro-1H-pyrazolo[3,4-c]pyridin-1-yl)-2-fluoro-N-(methylsulfonyl)benzamide], the IC50 is > 10000 nM.
Take `CS(=O)(=O)NC(=O)c1cc(Cl)c(-n2ncc3cc(Cl)ccc32)cc1F` [Example 2, 5-chloro-4-(5-chloro-1H-indazol-1-yl)-2-fluoro-N-(methylsulfonyl)benzamide]: the concentration for half-maximal inhibition (IC50) was determined as 5390 nM.
Regarding `CS(=O)(=O)NC(=O)c1ccc(-n2nc(-c3ccc(C(F)(F)F)cc3)c3cc(Cl)ccc32)c(F)c1` [Example 122, 4-(5-chloro-3-(4-(trifluoromethyl)phenyl)-1H-indazol-1-yl)-3-fluoro-N-(methylsulfonyl)benzamide], the IC50 worked out at 310 nM.
On the same count and under the same terms, in the case of `CS(=O)(=O)NC(=O)c1cc(Cl)c(-n2ncc3c(Cl)c(F)ccc32)cc1F` [Example 15, 5-chloro-4-(4-chloro-5-fluoro-1H-indazol-1-yl)-2-fluoro-N-(methylsulfonyl)benzamide] it was 3090 nM.
